Results from PMC8445441, “Elucidating the mechanism by which synthetic helper peptides sensitize Pseudomonas aeruginosa to multiple antibiotics” (PLoS Pathogens, 2021).
Like-named read-outs stand apart in the source and are kept apart here. Values belong to the compound of their own block, whether it stands above or below them.

Tests used:
P. aeruginosa AUMC-Pa-3 = test: microbe, parasite or virus in culture; conditions: for MIC: Pseudomonas aeruginosa, AUMCPA3, 18 h, read-out: MICa: MIC of the antibiotic; for FICI / MICac: MIC of the antibiotic in the combination: strain AUMC-Pa-3; for FICI: antibiotic + D-11 (MICb/MICbc 128/4); for MICac: MIC of the antibiotic in the combination: with D-11 at MICbc 4, unit not given
In short: (§1)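 Growth inhibition was scored by eye after an 18 h, 37 °C incubation of drug-bacteria mixtures in Mueller-Hinton broth. Inoculum suspension held approximately 1 × 10^6 CFU/mL before 1:1 mixing.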

P. aeruginosa AUMC-Pa-4 = test: microbe, parasite or virus in culture; conditions: for MIC: Pseudomonas aeruginosa, AUMCPA4, 18 h, read-out: MICa: MIC of the antibiotic; for FICI / MICac: MIC of the antibiotic in the combination: strain AUMC-Pa-4; for FICI: antibiotic + D-11 (MICb/MICbc 128/4); for MICac: MIC of the antibiotic in the combination: with D-11 at MICbc 4, unit not given
In short: as §1

P. aeruginosa AUMC-Pa-5 = test: microbe, parasite or virus in culture; conditions: for MIC: Pseudomonas aeruginosa, AUMCPA5, 18 h, read-out: MICa: MIC of the antibiotic; for FICI / MICac: MIC of the antibiotic in the combination: strain AUMC-Pa-5; for FICI: antibiotic + D-11 (MICb/MICbc 64/4); for MICac: MIC of the antibiotic in the combination: with D-11 at MICbc 4, unit not given
In short: as §1

P. aeruginosa AUMC-Pa-6 = test: microbe, parasite or virus in culture; conditions: for MIC: Pseudomonas aeruginosa, AUMCPA6, 18 h, read-out: MICa: MIC of the antibiotic; for FICI / MICac: MIC of the antibiotic in the combination: strain AUMC-Pa-6; for FICI: antibiotic + D-11 (MICb/MICbc 64/4); for MICac: MIC of the antibiotic in the combination: with D-11 at MICbc 4, unit not given
In short: as §1

P. aeruginosa PAO1 = test: microbe, parasite or virus in culture; conditions: PAO1; for MIC: Pseudomonas aeruginosa, PAO1, 18 h, read-out: MICa: the MIC of antibiotics, S3 Table, antibiotic alone; for FICI / MICac: the MIC for the antibiotic in the combination: S3 Table
In short: as §1

P. aeruginosa ATCC27853 = test: microbe, parasite or virus in culture; design: MICa: MIC of the antibiotic / MICac: MIC of the antibiotic in the combination: unit not given beside the values; conditions: for MIC: Pseudomonas aeruginosa, ATCC27853, 18 h, read-out: MICa: MIC of the antibiotic; for FICI / MICac: MIC of the antibiotic in the combination: strain ATCC27853; for FICI: antibiotic + D-11 (MICb/MICbc 32/4); for MICac: MIC of the antibiotic in the combination: with D-11 at MICbc 4, unit not given
In short: as §1

P. aeruginosa NR-31040 = test: microbe, parasite or virus in culture; design: MICa: MIC of the antibiotic / MICac: MIC of the antibiotic in the combination: unit not given beside the values; conditions: for MIC: Pseudomonas aeruginosa, NR31040, 18 h, read-out: MICa: MIC of the antibiotic; for FICI / MICac: MIC of the antibiotic in the combination: strain NR-31040; for FICI: antibiotic + D-11 (MICb/MICbc 128/4); for MICac: MIC of the antibiotic in the combination: with D-11 at MICbc 4, unit not given
In short: as §1

P. aeruginosa NR-31041 = test: microbe, parasite or virus in culture; design: MICa: MIC of the antibiotic / MICac: MIC of the antibiotic in the combination: unit not given beside the values; conditions: for MIC: Pseudomonas aeruginosa, NR31041, 18 h, read-out: MICa: MIC of the antibiotic; for FICI / MICac: MIC of the antibiotic in the combination: strain NR-31041; for FICI: antibiotic + D-11 (MICb/MICbc 64/4); for MICac: MIC of the antibiotic in the combination: with D-11 at MICbc 4, unit not given
In short: as §1

P. aeruginosa PA14 = test: microbe, parasite or virus in culture; design: MICa: MIC of the antibiotic / MICac: MIC of the antibiotic in the combination: unit not given beside the values; conditions: for MIC: Pseudomonas aeruginosa, PA14, 18 h, read-out: MICa: MIC of the antibiotic; for FICI / MICac: MIC of the antibiotic in the combination: strain PA14; for FICI: antibiotic + D-11 (MICb/MICbc 128/4); for MICac: MIC of the antibiotic in the combination: with D-11 at MICbc 4, unit not given
In short: as §1

P. aeruginosa PAK = test: microbe, parasite or virus in culture; design: MICa: MIC of the antibiotic / MICac: MIC of the antibiotic in the combination: unit not given beside the values; conditions: for MIC: Pseudomonas aeruginosa, 18 h, read-out: MICa: MIC of the antibiotic; for FICI / MICac: MIC of the antibiotic in the combination: strain PAK; for FICI: antibiotic + D-11 (MICb/MICbc 64/4); for MICac: MIC of the antibiotic in the combination: with D-11 at MICbc 4, unit not given
In short: as §1

P. aeruginosa HM-214 = conditions: strain HM-214; antibiotic + D-11 (MICb/MICbc 128/4)
In short: as §1

P. aeruginosa AUMC-Pa-1 = conditions: strain AUMC-Pa-1; antibiotic + D-11 (MICb/MICbc 128/4)
In short: as §1

P. aeruginosa AUMC-Pa-2 = conditions: strain AUMC-Pa-2; antibiotic + D-11 (MICb/MICbc 64/4)
In short: as §1

[1] = tested on: clinical P. aeruginosa isolates; test: microbe, parasite or virus in culture; conditions: Pseudomonas aeruginosa, 18 h, antibiotic alone
In short: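 Broth microdilution per CLSI in MHB, two-fold drug dilutions mixed with an equal volume of bacteria at about 1 × 10^6 CFU/mL. After 18 h at 37 °C, MIC taken as the lowest concentration with no visible growth; run in triplicate.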

[2] = read-out: Antibiotic sensibility (MIC) of clinical P. aeruginosa isolate AUMC-Pa-1, strain AUMC-Pa-1
[3] = read-out: Antibiotic sensibility (MIC) of clinical P. aeruginosa isolate AUMC-Pa-2, strain AUMC-Pa-2
[4] = read-out: Antibiotic sensibility (MIC) of clinical P. aeruginosa isolate AUMC-Pa-3, strain AUMC-Pa-3
[5] = read-out: Antibiotic sensibility (MIC) of clinical P. aeruginosa isolate AUMC-Pa-4, strain AUMC-Pa-4
[6] = read-out: Antibiotic sensibility (MIC) of clinical P. aeruginosa isolate AUMC-Pa-5, strain AUMC-Pa-5
[7] = read-out: Antibiotic sensibility (MIC) of clinical P. aeruginosa isolate AUMC-Pa-6, strain AUMC-Pa-6
[8] = read-out: Antibiotic sensibility (MIC) of clinical P. aeruginosa isolate HM-214, strain HM-214
[9] = read-out: Antibiotic sensibility (MIC) of clinical P. aeruginosa isolate NR-31040, strain NR-31040
[10] = read-out: Antibiotic sensibility (MIC) of clinical P. aeruginosa isolate NR-31041, strain NR-31041

MIC (P. aeruginosa AUMC-Pa-3): > 128 µM
MICac: MIC of the antibiotic in the combination (P. aeruginosa AUMC-Pa-3): 16
MIC (P. aeruginosa AUMC-Pa-4): > 128 µM
MICac: MIC of the antibiotic in the combination (P. aeruginosa AUMC-Pa-4): 16
MIC (P. aeruginosa AUMC-Pa-5): > 128 µM
MICac: MIC of the antibiotic in the combination (P. aeruginosa AUMC-Pa-5): >128/128
MIC (P. aeruginosa AUMC-Pa-6): > 128 µM
MICac: MIC of the antibiotic in the combination (P. aeruginosa AUMC-Pa-6): 64
MIC (P. aeruginosa PAO1): > 128 µM
MICac: the MIC for the antibiotic in the combination (P. aeruginosa PAO1; with 2 μM D-11): 32 µM
MICac: the MIC for the antibiotic in the combination (P. aeruginosa PAO1; with 4 μM D-11): 16 µM
MIC (P. aeruginosa ATCC27853): > 128 µM
MICac: MIC of the antibiotic in the combination (P. aeruginosa ATCC27853): 32
MIC (P. aeruginosa NR-31040): > 128 µM
MICac: MIC of the antibiotic in the combination (P. aeruginosa NR-31040): 64
MIC (P. aeruginosa NR-31041): > 128 µM
MICac: MIC of the antibiotic in the combination (P. aeruginosa NR-31041): 16
MIC (P. aeruginosa PA14): > 128 µM
MICac: MIC of the antibiotic in the combination (P. aeruginosa PA14): 32
MIC (P. aeruginosa PAK): > 128 µM
MICac: MIC of the antibiotic in the combination (P. aeruginosa PAK): 32
MIC [1, 2]: > 128 µM
MIC [1, 3]: > 128 µM
MIC [1, 4]: > 128 µM
MIC [1, 5]: > 128 µM
MIC [1, 6]: > 128 µM
MIC [1, 7]: > 128 µM
MIC [1, 8]: > 128 µM
MIC [1, 9]: > 128 µM
MIC [1, 10]: > 128 µM
SMILES: COc1cc(Cc2cnc(N)nc2N)cc(OC)c1OC [Trimethoprim]
FICI (P. aeruginosa AUMC-Pa-3): 0.094
FICI (P. aeruginosa AUMC-Pa-4): 0.156
FICI (P. aeruginosa AUMC-Pa-5): 0.563
FICI (P. aeruginosa AUMC-Pa-6): 0.313
FICI (P. aeruginosa PAO1; antibiotic + 2 μM D-11): 0.188
FICI (P. aeruginosa PAO1; antibiotic + 4 μM D-11): 0.188
FICI (P. aeruginosa ATCC27853): 0.250
FICI (P. aeruginosa NR-31040): 0.281
FICI (P. aeruginosa NR-31041): 0.125
FICI (P. aeruginosa PA14): 0.156
FICI (P. aeruginosa PAK): 0.188
FICI (P. aeruginosa HM-214): 0.281
FICI (P. aeruginosa AUMC-Pa-1): 0.156
FICI (P. aeruginosa AUMC-Pa-2): 0.188

MIC (P. aeruginosa AUMC-Pa-3): > 128 µM
MICac: MIC of the antibiotic in the combination (P. aeruginosa AUMC-Pa-3): 8
MIC (P. aeruginosa AUMC-Pa-4): > 128 µM
MICac: MIC of the antibiotic in the combination (P. aeruginosa AUMC-Pa-4): >128/128
MIC (P. aeruginosa AUMC-Pa-5): > 128 µM
MICac: MIC of the antibiotic in the combination (P. aeruginosa AUMC-Pa-5): >128/>128
MIC (P. aeruginosa AUMC-Pa-6): > 128 µM
MICac: MIC of the antibiotic in the combination (P. aeruginosa AUMC-Pa-6): 32
MIC (P. aeruginosa PAO1): > 128 µM
MICac: the MIC for the antibiotic in the combination (P. aeruginosa PAO1; with 2 μM D-11): 8 µM
MICac: the MIC for the antibiotic in the combination (P. aeruginosa PAO1; with 4 μM D-11): 4 µM
MIC (P. aeruginosa ATCC27853): > 128 µM
MICac: MIC of the antibiotic in the combination (P. aeruginosa ATCC27853): 8
MIC (P. aeruginosa NR-31040): > 128 µM
MICac: MIC of the antibiotic in the combination (P. aeruginosa NR-31040): 8
MIC (P. aeruginosa NR-31041): > 128 µM
MICac: MIC of the antibiotic in the combination (P. aeruginosa NR-31041): 16
MIC (P. aeruginosa PA14): > 128 µM
MICac: MIC of the antibiotic in the combination (P. aeruginosa PA14): 16
MIC (P. aeruginosa PAK): > 128 µM
MICac: MIC of the antibiotic in the combination (P. aeruginosa PAK): 16
MIC [1, 2]: > 128 µM
MIC [1, 3]: > 128 µM
MIC [1, 4]: > 128 µM
MIC [1, 5]: > 128 µM
MIC [1, 6]: > 128 µM
MIC [1, 7]: > 128 µM
MIC [1, 8]: > 128 µM
MIC [1, 9]: > 128 µM
MIC [1, 10]: > 128 µM
SMILES: CCn1cc(C(=O)O)c(=O)c2ccc(C)nc21 [Nalidixic Acid]
FICI (P. aeruginosa AUMC-Pa-3): 0.063
FICI (P. aeruginosa AUMC-Pa-4): 0.531
FICI (P. aeruginosa AUMC-Pa-5): 1.063
FICI (P. aeruginosa AUMC-Pa-6): 0.188
FICI (P. aeruginosa PAO1; antibiotic + 2 μM D-11): 0.094
FICI (P. aeruginosa PAO1; antibiotic + 4 μM D-11): 0.141
FICI (P. aeruginosa ATCC27853): 0.156
FICI (P. aeruginosa NR-31040): 0.063
FICI (P. aeruginosa NR-31041): 0.125
FICI (P. aeruginosa PA14): 0.094
FICI (P. aeruginosa PAK): 0.125
FICI (P. aeruginosa HM-214): 0.531
FICI (P. aeruginosa AUMC-Pa-1): 0.531
FICI (P. aeruginosa AUMC-Pa-2): 0.188
